Measurements from the CheMixHub ionic liquid set.

Experiment: xn = mol fraction of the nth substance listed

CCCCCCCCCCCCCCCC[n+]1ccccc1.O=C([O-])c1ccccc1O + NCC(=O)NCC(=O)O + O
electrical conductivity [S/m], 101 kPa
Conditions	293.15 K	298.15 K	303.15 K	308.15 K	313.15 K
x2 = 0.0009002, x1 = 3.6e-07	0.0016	0.0019	0.00224	0.00265	0.00314
x2 = 0.0009002, x1 = 7.2e-07	0.00178	0.0021	0.00248	0.0029	0.00341
x2 = 0.0009002, x1 = 1.09e-06	0.00197	0.00232	0.00272	0.00318	0.00371
x2 = 0.0009002, x1 = 1.27e-06	0.00204	0.00241	0.00282	0.00329	0.00384
x2 = 0.0009002, x1 = 1.63e-06	0.00215	0.00253	0.00296	0.00345	0.00402
x2 = 0.0009002, x1 = 1.99e-06	0.00228	0.00269	0.00318	0.00366	0.00426
x2 = 0.0009002, x1 = 2.36e-06	0.00242	0.00285	0.00336	0.00389	0.00452
x2 = 0.0009002, x1 = 2.72e-06	0.00254	0.00298	0.0035	–	0.00473
x2 = 0.0009002, x1 = 3.08e-06	0.00261	0.00307	0.0036	0.00419	0.00487
x2 = 0.0009002, x1 = 3.44e-06	0.00272	0.00319	0.00373	0.00434	0.00504
x2 = 0.0009002, x1 = 3.81e-06	0.00285	0.00334	0.00389	0.00452	0.00524
x2 = 0.0009002, x1 = 4.35e-06	0.00298	0.00348	0.00404	0.00468	0.00543
x2 = 0.0009002, x1 = 4.71e-06	0.00311	0.00362	0.00422	0.00487	0.00562
x2 = 0.0009002, x1 = 5.26e-06	0.00322	0.00374	0.00435	0.00501	0.00579
x2 = 0.0009002, x1 = 5.62e-06	0.00334	–	0.0045	0.00518	0.00595
x2 = 0.001799, x1 = 1.8e-07	0.00253	0.00303	0.00363	0.00434	0.00519
x2 = 0.001799, x1 = 3.6e-07	0.0026	0.00311	0.00371	0.00444	0.00529
x2 = 0.001799, x1 = 5.5e-07	0.00269	0.00321	0.00382	0.00456	–
x2 = 0.001799, x1 = 7.3e-07	0.00282	0.00336	0.00389	0.00475	0.00563
x2 = 0.001799, x1 = 9.1e-07	0.00291	0.00345	0.0041	0.00487	0.00576
x2 = 0.001799, x1 = 1.28e-06	0.00301	0.00357	0.00422	0.00501	0.00592
x2 = 0.001799, x1 = 1.46e-06	0.00313	0.0037	0.00438	0.00519	0.00613
x2 = 0.001799, x1 = 1.82e-06	0.00325	0.00384	0.00454	0.00537	0.00632
x2 = 0.001799, x1 = 2.19e-06	0.00335	0.00397	0.00469	0.00555	0.00653
x2 = 0.001799, x1 = 2.55e-06	0.00347	0.0041	0.00484	0.00572	0.00673
x2 = 0.001799, x1 = 2.92e-06	0.00355	0.00419	0.00495	0.00584	0.00688
x2 = 0.001799, x1 = 3.1e-06	–	–	–	–	0.00701
x2 = 0.001799, x1 = 3.46e-06	0.00371	0.00437	0.00515	0.00607	0.00715
x2 = 0.001799, x1 = 3.83e-06	0.00379	0.00447	0.00526	0.00619	0.00728
x2 = 0.001799, x1 = 4.01e-06	–	–	–	–	0.00738

CCCCCCCCCCCCCCCC[n+]1ccccc1.O=C([O-])c1ccccc1O + NCC(=O)O + O
electrical conductivity [S/m], 101 kPa
Conditions	293.15 K	298.15 K	303.15 K	308.15 K	313.15 K
x2 = 0.0009002, x1 = 5.4e-07	0.000445	0.000504	0.00057	0.000642	0.000723
x2 = 0.0009002, x1 = 1.26e-06	0.00068	0.000773	0.00087	0.000972	0.00108
x2 = 0.0009002, x1 = 1.63e-06	0.000841	0.000952	0.00107	0.0012	0.00134
x2 = 0.0009002, x1 = 1.99e-06	0.000997	0.00113	0.00127	0.00141	0.00156
x2 = 0.0009002, x1 = 2.35e-06	0.00114	0.00129	0.00145	0.00161	0.00179
x2 = 0.0009002, x1 = 2.89e-06	0.00127	0.00145	0.00164	0.00184	0.00205
x2 = 0.0009002, x1 = 3.43e-06	0.00141	0.00161	0.00185	0.00211	0.00234
x2 = 0.0009002, x1 = 4.16e-06	0.00157	0.0018	0.00206	0.00234	0.00264
x2 = 0.0009002, x1 = 4.88e-06	0.00173	0.00198	0.00226	0.00258	0.00292
x2 = 0.0009002, x1 = 5.6e-06	0.0019	0.00216	0.00247	0.00281	0.00318
x2 = 0.0009002, x1 = 6.32e-06	0.00205	0.00234	0.00267	0.00302	0.00343
x2 = 0.0009002, x1 = 6.87e-06	–	–	–	–	0.00364
x2 = 0.0009002, x1 = 7.05e-06	0.00217	0.0025	0.00284	0.00321	–
x2 = 0.0009002, x1 = 7.59e-06	0.00232	0.00264	0.003	0.00339	0.00383
x2 = 0.0009002, x1 = 8.13e-06	0.00244	0.00278	0.00314	0.00356	0.00402
x2 = 0.0009002, x1 = 8.67e-06	0.00258	0.00292	0.00331	0.00374	0.00421
x2 = 0.001799, x1 = 3.6e-07	0.000498	0.000578	0.00067	0.000776	0.0009
x2 = 0.001799, x1 = 9.1e-07	0.000684	0.000791	0.00091	0.00104	0.00119
x2 = 0.001799, x1 = 1.45e-06	0.000895	0.00102	0.00117	0.00132	0.0015
x2 = 0.001799, x1 = 1.99e-06	0.0011	0.00125	0.00141	0.0016	0.0018
x2 = 0.001799, x1 = 2.17e-06	0.00119	0.00135	0.00153	0.00172	0.00194
x2 = 0.001799, x1 = 2.54e-06	0.00127	0.00145	0.00166	0.00187	0.00209
x2 = 0.001799, x1 = 2.72e-06	0.00134	0.00155	0.00178	0.002	0.00225
x2 = 0.001799, x1 = 3.08e-06	0.0014	0.00162	0.00186	0.0021	0.00237
x2 = 0.001799, x1 = 3.26e-06	–	–	0.00195	0.00223	0.00251
x2 = 0.001799, x1 = 3.44e-06	0.00146	0.00169	–	–	–
x2 = 0.001799, x1 = 3.81e-06	0.00155	0.0018	0.00206	0.00236	0.00267
x2 = 0.001799, x1 = 4.35e-06	0.00167	0.00192	0.0022	0.00253	0.00287
x2 = 0.001799, x1 = 4.89e-06	0.00179	0.00206	0.00236	0.0027	0.00307
x2 = 0.001799, x1 = 5.44e-06	0.00192	0.0022	0.00252	0.00289	0.00328
x2 = 0.001799, x1 = 5.98e-06	0.00202	0.00232	0.00265	0.00303	0.00344
x2 = 0.001799, x1 = 6.34e-06	–	–	–	–	0.00359
x2 = 0.001799, x1 = 6.52e-06	0.00213	0.00244	0.00278	0.00316	–

CCCC[n+]1ccn(C)c1.O=S(=O)([O-])C(F)(F)F + NCCO
Conditions	viscosity [mPa·s]
293.15 K, 101 kPa, x2 = 0.3209	52.92

CCCC[n+]1ccn(C)c1.[Cl-] + NCCO
viscosity [mPa·s], 100 kPa
Conditions	293 K	303 K	303.1 K	313.1 K	333.2 K
x2 = 0.5	–	–	95.3	57	24.9
x2 = 0.677	62.3	37.1	–	24.1	–
